The results in this text go back to ChEMBL document CHEMBL1201862, “PubChem BioAssay data set” (2004).

Some test systems named below: A498; HCT-15; HL-60; HOP-92; IGROV-1; M14; MOLT-4; NCI-H460; NCI-H522; OVCAR-5; RXF 393; SF-268; SF-295; SK-MEL-5; SK-OV-3; UACC-257; UO-31.
Common to all, as to assay: inhibition of tumour cell growth, NCI panel, 48 h

The structures appear in SMILES notation.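 Following 48 hours of exposure in 96-well plates, responses at five concentrations were used to interpolate endpoints linearly. At the GI50, growth is halved.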 Calls of active or inactive are those of the source. Rule as the data show it: active = GI50 up to about 1.1 µM and inactive = higher.

Consider `CCCCC(C)C(OC(=O)CC(CC(=O)O)C(=O)O)C(CC(C)CC(O)CCCCC(O)CC(O)C(C)N)OC(=O)CC(CC(=O)O)C(=O)O` (configuration not stated), for which the GI50 in the experiment with A498 was > 100 µM (inactive); in the experiment on HCT-15 it was more than 100 µM; in the experiment on HL-60, > 69.8 µM (inactive); in the experiment on HOP-92 it was > 65.8 µM (inactive); in the experiment on IGROV-1, > 100 µM (inactive); in the experiment on M14, > 100 µM (inactive). Also, the GI50 with MOLT-4 was > 100 µM (inactive); in the experiment with NCI-H460, > 100 µM (inactive); in the experiment with NCI-H522, > 100 µM (inactive); in the experiment with OVCAR-5, > 100 µM (inactive); in the experiment with RXF 393, > 48.8 µM (inactive); with SF-268, > 100 µM (inactive). Further, the GI50 in the experiment with SF-295, with SK-MEL-5, in the experiment on SK-OV-3, in the experiment on UACC-257 and in the experiment with UO-31 was > 100 µM (inactive) in each case.
For the compound `O=C1CC(=O)N(CCc2ccccc2)S(=O)(=O)N1CCc1ccccc1`, the GI50 is 16.6 µM (inactive) in the experiment with A498; 33.2 µM in the experiment on HCT-15; 19.1 µM (inactive) in the experiment on HL-60; 16.6 µM (inactive) with HOP-92; 20.1 µM (inactive) with IGROV-1; 40.6 µM (inactive) in the experiment with M14. The GI50 is 20.3 µM (inactive) in the experiment with MOLT-4; 27.7 µM (inactive) in the experiment with NCI-H460; 19.5 µM (inactive) in the experiment on NCI-H522; 22.7 µM (inactive) in the experiment on OVCAR-5; 34.1 µM (inactive) with RXF 393; 29.1 µM (inactive) in the experiment with SF-268. Further, the GI50 in the experiment with SF-295 was 16.9 µM (inactive); with SK-MEL-5, 18.7 µM (inactive); with SK-OV-3 it was 24.3 µM (inactive); in the experiment with UO-31 it was 21.8 µM (inactive).
As to `NNC(=O)/C(=C/c1ccc(Cl)cc1Cl)NC(=O)c1ccccc1`, the GI50 in the experiment on A498 was > 100 µM (inactive); with HCT-15, more than 100 µM; in the experiment with HL-60 it was > 100 µM (inactive); in the experiment on HOP-92, > 100 µM (inactive); with IGROV-1 it was > 100 µM (inactive); with M14, > 100 µM (inactive). In addition, the GI50 in the experiment on MOLT-4 is 60.5 µM (inactive); with NCI-H460 it was > 100 µM (inactive); in the experiment with NCI-H522 it was > 100 µM (inactive); in the experiment on OVCAR-5, > 100 µM (inactive); with RXF 393, > 100 µM (inactive); in the experiment with SF-268 it was > 100 µM (inactive). Further, the GI50 in the experiment on SF-295, in the experiment with SK-MEL-5, in the experiment with SK-OV-3, in the experiment with UACC-257 and in the experiment with UO-31 was > 100 µM (inactive) in each case.
`CSCCC(C(=O)O)N(CC1(O)OCC(O)C(O)C1O)N=O` (configuration not stated): the GI50 in the experiment on A498, with HL-60, with HOP-92, with IGROV-1, in the experiment on M14 and in the experiment with MOLT-4 was > 100 µM (inactive) in each case. Moreover, the GI50 in the experiment with NCI-H460, in the experiment on NCI-H522, in the experiment with OVCAR-5, in the experiment on RXF 393, in the experiment with SK-MEL-5 and in the experiment on SK-OV-3 was > 100 µM (inactive) each time. Also, the GI50 in the experiment on UACC-257 and in the experiment with UO-31 was > 100 µM (inactive) each time.
In the case of `Nc1c(-c2ccc(-c3c(N)[n+]([O-])c4ccccc4[n+]3[O-])cc2)[n+]([O-])c2ccccc2[n+]1[O-]`, the GI50 with A498 is 18.3 µM (inactive); in the experiment on HCT-15, 3.92 µM; in the experiment with HL-60 it was 13.9 µM (inactive); in the experiment on HOP-92, > 100 µM (inactive); with IGROV-1 it was 17.7 µM (inactive); with M14, 12.2 µM (inactive). The GI50 in the experiment on MOLT-4 is 33.3 µM (inactive); with NCI-H460, 14.3 µM (inactive); with NCI-H522 it was 1.6 µM (inactive); in the experiment on OVCAR-5, 20.5 µM (inactive); with SF-268, 17.2 µM (inactive); with SF-295, 16 µM (inactive). For the same compound, the GI50 was 10.1 µM (inactive) in the experiment on SK-MEL-5, 24.9 µM (inactive) with SK-OV-3, 3.47 µM (inactive) in the experiment on UACC-257 and 16.4 µM (inactive) in the experiment on UO-31.
For the compound `O=c1ncccn1[C@@H]1O[C@H](CO)[C@H](O)C1O` (some centres not stated), the GI50 is > 100 µM (inactive) with A498; more than 93.1 µM in the experiment on HCT-15; 47.3 µM (inactive) in the experiment on HL-60; > 71.3 µM (inactive) in the experiment on HOP-92; > 100 µM (inactive) in the experiment with IGROV-1; > 100 µM (inactive) in the experiment on M14. For the same compound, the GI50 with MOLT-4 was 61.7 µM (inactive); with NCI-H460, 47.9 µM (inactive); in the experiment on NCI-H522, > 88.5 µM (inactive); in the experiment on OVCAR-5 it was > 100 µM (inactive); in the experiment on RXF 393, 80.9 µM (inactive); with SF-268, 71.8 µM (inactive). Further, the GI50 in the experiment with SF-295, with SK-MEL-5, in the experiment on SK-OV-3, with UACC-257 and in the experiment with UO-31 was > 100 µM (inactive) in each case.
As for `CC(=O)NC(CCCCNC(=O)N(C)N=O)C(=O)NCc1ccccc1` (configuration not stated), the GI50 in the experiment on A498 is > 100 µM (inactive); with HCT-15 it was more than 100 µM; in the experiment with HOP-92 it was > 100 µM (inactive); in the experiment on IGROV-1, > 100 µM (inactive); with M14, > 100 µM (inactive); with MOLT-4, > 100 µM (inactive). For the same compound, the GI50 is 79.6 µM (inactive) with NCI-H460; > 100 µM (inactive) in the experiment on NCI-H522; > 100 µM (inactive) in the experiment on OVCAR-5; > 100 µM (inactive) in the experiment with RXF 393; > 100 µM (inactive) in the experiment with SF-268; > 100 µM (inactive) with SF-295. Besides, the GI50 in the experiment with SK-MEL-5, in the experiment with SK-OV-3, in the experiment with UACC-257 and with UO-31 was > 100 µM (inactive) in each case.
`CN1C(=O)CC(c2cccc(C3CC(=O)N(C)C3=O)n2)C1=O` (configuration not stated): the GI50 is > 100 µM (inactive) with A498; more than 100 µM in the experiment on HCT-15; > 100 µM (inactive) with HL-60; > 100 µM (inactive) in the experiment on HOP-92; > 100 µM (inactive) in the experiment on IGROV-1; > 100 µM (inactive) in the experiment on M14. Besides, the GI50 in the experiment with MOLT-4, in the experiment on NCI-H460, with NCI-H522, with OVCAR-5, with RXF 393 and with SF-268 was > 100 µM (inactive) throughout. The GI50 in the experiment with SF-295, with SK-MEL-5, in the experiment with SK-OV-3, in the experiment on UACC-257 and in the experiment on UO-31 was > 100 µM (inactive) in each case.
Consider `CCOc1ccccc1N1C(=O)C(=O)C(c2nc3ccccc3o2)C(=O)C1=O`, for which the GI50 is 48.6 µM (inactive) with A498; more than 100 µM in the experiment on HCT-15; > 100 µM (inactive) in the experiment with HL-60; > 100 µM (inactive) in the experiment with HOP-92; > 100 µM (inactive) with IGROV-1; > 100 µM (inactive) with M14. The GI50 with MOLT-4 is > 100 µM (inactive); in the experiment on NCI-H522 it was > 100 µM (inactive); with OVCAR-5, > 100 µM (inactive); in the experiment on SF-268, > 100 µM (inactive); in the experiment with SF-295, 20.8 µM (inactive); with SK-MEL-5 it was > 100 µM (inactive). Further, the GI50 in the experiment with SK-OV-3 was 28.6 µM (inactive); in the experiment with UACC-257 it was > 100 µM (inactive); in the experiment on UO-31, 61.5 µM (inactive).
With `CN1N=C2c3ccccc3OC(c3ccccc3)[C@H]2C1c1ccccc1` (some centres not stated), the GI50 in the experiment on A498 is > 100 µM (inactive); in the experiment on HCT-15, 75 µM; with HL-60, 37.3 µM (inactive); in the experiment with HOP-92, 32.7 µM (inactive); in the experiment with IGROV-1, 90.8 µM (inactive); with M14 it was > 100 µM (inactive). In addition, the GI50 with MOLT-4 is 35.2 µM (inactive); in the experiment on NCI-H460, 97.1 µM (inactive); in the experiment with NCI-H522, 22.5 µM (inactive); in the experiment with OVCAR-5, > 100 µM (inactive); with RXF 393 it was 28.2 µM (inactive); in the experiment on SF-268, > 100 µM (inactive). Moreover, the GI50 in the experiment on SF-295 is 90.4 µM (inactive); with SK-OV-3, > 100 µM (inactive); in the experiment on UACC-257, 81.1 µM (inactive); in the experiment with UO-31, 61.1 µM (inactive).
Regarding `C=C(C)C1C/C=C(/C)CCCC2(CCC3=C(CC(C(=C)C)C/C=C(/C)CCC3)O2)C(=O)C1` (configuration not stated), the GI50 with A498 was > 100 µM (inactive); with HCT-15, more than 100 µM; in the experiment with HL-60, > 100 µM (inactive); with HOP-92 it was > 100 µM (inactive); in the experiment with IGROV-1 it was > 100 µM (inactive); in the experiment on M14, > 100 µM (inactive). Also, the GI50 in the experiment on MOLT-4, with NCI-H460, with NCI-H522, in the experiment on RXF 393, with SF-268 and in the experiment on SF-295 was > 100 µM (inactive) throughout. Besides, the GI50 in the experiment on SK-OV-3, in the experiment with UACC-257 and in the experiment with UO-31 was > 100 µM (inactive) throughout.
On to `O=C(O)CN(c1ccccc1)S(=O)(=O)c1ccc([N+](=O)[O-])cc1`, for which the GI50 in the experiment with A498 was > 100 µM (inactive); with HCT-15 it was more than 100 µM; in the experiment on HL-60, > 100 µM (inactive); with HOP-92 it was > 100 µM (inactive); in the experiment with IGROV-1 it was > 100 µM (inactive); in the experiment on M14 it was > 100 µM (inactive). For the same compound, the GI50 in the experiment on MOLT-4, with NCI-H460, in the experiment with NCI-H522, with OVCAR-5, in the experiment with RXF 393 and with SF-295 was > 100 µM (inactive) in each case. In addition, the GI50 in the experiment with SK-MEL-5, in the experiment on SK-OV-3, in the experiment on UACC-257 and in the experiment on UO-31 was > 100 µM (inactive) throughout.
